The values below come from patent US7829666B2, “Maurotoxin, PI1 and HSTX1 derivatives” (Cellpep Pharma Inc., priority 2000, dated 2010).

For orientation: IC50 means the concentration that gives 50% inhibition. Broadly, the LD50 is the dose expected to kill half of the subjects tested.

Bridge positions count the residues as written; N and C are the ends. Square brackets hold non-standard residues; d marks the D form. Peptide text beside a SMILES is read from it. Abu = CC[C@H](N)C(=O)O

For data set [1], the system named is Ca2+-activated K+ channels, e.g. apamin-sensitive SK channels. Conditions: background statement; cited from earlier work.
Data set [2] has as its system C57/BL6 mice. As to the kind of experiment: Lethality/toxicity in C57/BL6 mice, intracerebroventricular injection. Format: in vivo. From the text:
(§1) The MTX derivatives, as well as the MTX structurally homologous Pi1 or HsTx1 derivatives, of the invention are thus of potential therapeutic value for treating mammalian (including human) pathologies that are associated with a dysfunctioning of Ca^2+-activated and/or voltage-gated Kv channel subtypes. Such pathologies include immune and/or neurological diseases like multiple sclerosis, Parkinson's and Alzheimer's diseases, both thought to be associated with a dysfunctioning of Ca^2+-activated and/or voltage-gated K^+ channel subtype(s). The axonal impulse propagation ensures a continued transmission of nervous signals to remote targets. In a number of neuropathies, the nervous conduction is either slowed down or locked. This could be linked to alteration or functional changes of myelinated fibres (demyelinisation or alteration of the membrane properties at the Ranvier nodes). Among these neuropathies are multiple sclerosis (central nervous system; CNS) and Guillain-Barr syndrome (peripheral nervous system). It is now well-admitted that alteration of the axonal function is related to the presence of voltage-gated (Kv) K^+ channels (there is a widespread distribution of Kv1.1 and Kv1.2 channel subtypes in nerve terminals throughout the brain, whereas Kv channels—independent of their subtypes—are considered to be ubiquitous, including in the peripheral nervous system), and possibly Ca^2+-activated K^+ channels. In the previously cited neuropathies, Ca^2+-activated K^+ channels and Kv channels are either abnormally exposed in demyelinated or inflammatory lesions, or over-expressed. Therefore, selective K^+-channel blockers, including Ca^2+-activated K^+ channel-acting and/or Kv-acting MTX/Pi1/HsTx1-derived peptides such as [Q15]-MTX, Pi1 amidated at C-terminus, [Abu9, 19, 29, 34]-MIX, are of potential therapeutic value as symptomatic therapy of multiple sclerosis and related neuropathies, as well as for use as selective immuno-suppressant drugs by their blocking action on Ca^2+-activated and/or Kv channels. Further, it can be speculated that such peptide blockers, in the CNS, could enhance transmitter release in pathways affected by progressive neurodegenerative diseases such as Alzheimer's disease.

For data set [3], the system named is Ca2+-activated K+ channels. As to the kind of experiment: Activity of MTX analog on Ca2+-activated K+ channels. Format: cell-based. The source says: (§2) In one preferred derivative, the substitution of the MTX half-cystine residues (by amino butyrate derivatives) located at positions 9, 19, 29, and 34 (corresponding by numbers to C2, C4, C6, and C8) results in a two disulfide-bridged MTX analog, i.e. VSCTGSKDAbuYAPCRKQTGAbuPNAKCINKSAbuKCYGAbu-NH2 [SEQ. ID NO. 8], with novel, non-native arrangement of the half-cystine pairings (Cys3-Cys24 and Cys13-Cys31).

The target of data set [4] is T1, mammalian voltage-gated Kv1.2 channel subtype (Homo sapiens, UniProt P16389). As to the kind of experiment: Blocking activity on voltage-gated Kv1.2 channel. The class given is cell-based.
T1 sequence (P16389 whole entry): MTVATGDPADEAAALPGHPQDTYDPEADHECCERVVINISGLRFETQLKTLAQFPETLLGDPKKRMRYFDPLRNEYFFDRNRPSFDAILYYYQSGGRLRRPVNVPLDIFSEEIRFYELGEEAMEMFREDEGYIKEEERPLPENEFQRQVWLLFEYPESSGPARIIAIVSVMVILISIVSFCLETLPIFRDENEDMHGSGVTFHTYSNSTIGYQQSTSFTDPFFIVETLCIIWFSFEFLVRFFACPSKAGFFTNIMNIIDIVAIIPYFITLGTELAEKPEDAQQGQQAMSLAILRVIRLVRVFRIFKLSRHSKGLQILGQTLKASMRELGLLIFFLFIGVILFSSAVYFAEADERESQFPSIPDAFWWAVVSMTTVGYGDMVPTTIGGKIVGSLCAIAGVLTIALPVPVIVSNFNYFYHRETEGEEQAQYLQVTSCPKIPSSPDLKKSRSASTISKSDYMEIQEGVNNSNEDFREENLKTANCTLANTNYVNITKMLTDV
From the text: as §2
An alternative approach to replacement of Cys residues with Abu is the replacement of one or two amino acid residues in natural MTX with other residues which prevent the folding of the molecule in such a way that the unconventional C1-C5, C2-C6, C3-C7 and C4-C8 disulfide bridge arrangement can occur. For instance, if neither of the residues at positions 32 and 33 is a Gly or Pro residue, the folding is altered in such a way that the MTX derivative adopts the conventional C1-C5, C2-C6, C3-C7 and C4-C8 of Pi1 and HsTx1. In particular, replacement of the Gly residue at position 33 by an Ala residue substitution, forming [A33]-MTX [SEQ. ID NO. 4], is effective. Substitution of Arg14 and/or Lys15 by Gln to give [Q14]-MTX [SEQ. ID NO. 5], [Q15]-MTX [SEQ. ID NO. 6] or [Q14,Q15]-MTX [SEQ. ID NO. 7] also induces half-cystine pairings between Cys3-Cys24, Cys9-Cys29, Cys13-Cys31 and Cys19-Cys34.

Data set [5] has as its target rat Kv1.3 channels (Rattus norvegicus, UniProt P15384). Conditions: background statement; cited from earlier work.
Data set [6] is described as follows: Lethality/toxicity in C57/BL6 mice, intracerebroventricular injection. Format: in vivo. Conditions: mouse, in vivo.
From the text: as §1

For data set [7], the target named is T1, mammalian voltage-gated Kv1.2 channel subtype. Conditions: background statement; picomolar or nanomolar concentration range; cited from earlier work.

Sequence of rat Kv1.3 channels (P15384 whole entry): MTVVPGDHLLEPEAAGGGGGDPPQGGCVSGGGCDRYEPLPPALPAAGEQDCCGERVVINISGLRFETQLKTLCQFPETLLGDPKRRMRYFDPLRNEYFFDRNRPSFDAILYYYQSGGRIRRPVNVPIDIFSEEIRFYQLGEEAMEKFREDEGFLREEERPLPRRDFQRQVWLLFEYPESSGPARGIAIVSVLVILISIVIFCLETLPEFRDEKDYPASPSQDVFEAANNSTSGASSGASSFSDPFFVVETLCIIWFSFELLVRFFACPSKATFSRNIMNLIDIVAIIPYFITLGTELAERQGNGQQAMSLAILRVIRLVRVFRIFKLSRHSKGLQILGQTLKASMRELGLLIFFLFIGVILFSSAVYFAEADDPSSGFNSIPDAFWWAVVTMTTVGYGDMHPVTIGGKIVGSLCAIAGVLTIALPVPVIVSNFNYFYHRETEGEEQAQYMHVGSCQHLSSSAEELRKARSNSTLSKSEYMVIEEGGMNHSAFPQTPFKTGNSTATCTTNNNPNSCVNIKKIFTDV

HsTx1: the “activity on Ca2+-activated K+ channels, e.g. apamin-sensitive SK channels” value (“activity … e.g. apamin-sensitive SK channels” below) in data set [1] was “inactive”.

With `CC[C@H](C)[C@@H]1NC(=O)[C@@H]2CSSC[C@H](NC(=O)[C@H](CO)NC(=O)[C@@H](N)C(C)C)C(=O)N[C@@H]([C@@H](C)O)C(=O)NCC(=O)N[C@@H](CO)C(=O)N[C@@H](CCCCN)C(=O)N[C@@H](CC(=O)O)C(=O)N[C@H]3CSSC[C@H](NC(=O)[C@H](CO)NC(=O)[C@H](CCCCN)NC(=O)[C@H](CC(N)=O)NC1=O)C(=O)N[C@@H](CCCCN)C(=O)N[C@H]1CSSC[C@H](NC(=O)[C@@H]4CCCN4C(=O)[C@H](C)NC(=O)[C@H](Cc4ccc(O)cc4)NC3=O)C(=O)N[C@@H](CCCNC(=N)N)C(=O)N[C@@H](CCC(N)=O)C(=O)N[C@@H](CCC(N)=O)C(=O)N[C@@H]([C@@H](C)O)C(=O)NCC(=O)N[C@@H](CSSC[C@@H](C(N)=O)NC(=O)CNC(=O)[C@H](Cc3ccc(O)cc3)NC1=O)C(=O)N1CCC[C@H]1C(=O)N[C@@H](CC(N)=O)C(=O)N[C@@H](C)C(=O)N[C@@H](CCCCN)C(=O)N2` [[Q15]-MTX] (H-VSCTGSKDCYAPCRQQTGCPNAKCINKSCKCYGC-NH2; disulfide 3-24, 9-29, 13-31, 19-34), in data set [2] (injected intracerebroventricularly at active concentrations), the lethality/toxicity entry is on record as “neither lethal nor toxic”.

Consider `CC[C@H](NC(=O)CNC(=O)[C@H](Cc1ccc(O)cc1)NC(=O)[C@@H]1CSSC[C@@H]2NC(=O)[C@@H]3CCCN3C(=O)[C@H](C)NC(=O)[C@H](Cc3ccc(O)cc3)NC(=O)[C@H](CC)NC(=O)[C@H](CC(=O)O)NC(=O)[C@H](CCCCN)NC(=O)[C@H](CO)NC(=O)CNC(=O)[C@H]([C@@H](C)O)NC(=O)[C@@H](NC(=O)[C@H](CO)NC(=O)[C@@H](N)C(C)C)CSSC[C@H](NC(=O)[C@H](CCCCN)NC(=O)[C@H](C)NC(=O)[C@H](CC(N)=O)NC(=O)[C@@H]3CCCN3C(=O)[C@H](CC)NC(=O)CNC(=O)[C@H]([C@@H](C)O)NC(=O)[C@H](CCC(N)=O)NC(=O)[C@H](CCCCN)NC(=O)[C@H](CCCNC(=N)N)NC2=O)C(=O)N[C@@H]([C@@H](C)CC)C(=O)N[C@@H](CC(N)=O)C(=O)N[C@@H](CCCCN)C(=O)N[C@@H](CO)C(=O)N[C@@H](CC)C(=O)N[C@@H](CCCCN)C(=O)N1)C(N)=O` [[Abu9, 19, 29, 34]-MTX, VSCTGSKDAbuYAPCRKQTGAbuPNAKCINKSAbuKCYGAbu-NH2] (H-VSCTGSKD[Abu]YAPCRKQTG[Abu]PNAKCINKS[Abu]KCYG[Abu]-NH2; disulfide 3-24, 13-31), for which the lethality/toxicity result in data set [2] (injected intracerebroventricularly, up to 1.25 mg/kg) is recorded as “neither lethal nor toxic”. The “activity on Ca2+-activated K+ channels” value in data set [3] is recorded as “remains active”. The half-inhibitory concentration (IC50) in data set [4] was 42 nM.

Turning to `CC[C@H](C)[C@@H]1NC(=O)[C@@H]2CSSC[C@H](NC(=O)[C@H](CCCCN)NC(=O)[C@@H](NC(=O)[C@@H](N)CC(C)C)C(C)C)C(=O)N[C@@H](CCCNC(=N)N)C(=O)NCC(=O)N[C@@H]([C@@H](C)O)C(=O)N[C@@H](CO)C(=O)N[C@@H](CC(=O)O)C(=O)N[C@H]3CSSC[C@H](NC(=O)[C@H](CCSC)NC(=O)[C@H](CCCNC(=N)N)NC(=O)[C@H](CC(N)=O)NC1=O)C(=O)N[C@@H](CCCCN)C(=O)N[C@H]1CSSC[C@H](NC(=O)[C@@H]4CCCN4C(=O)[C@H](CCCNC(=N)N)NC(=O)CNC3=O)C(=O)N[C@@H](CCC(N)=O)C(=O)N[C@@H](CCC(N)=O)C(=O)N[C@@H](CCC(N)=O)C(=O)N[C@@H]([C@@H](C)O)C(=O)NCC(=O)N[C@@H](CSSC[C@@H](C(N)=O)NC(=O)CNC(=O)[C@H](Cc3ccc(O)cc3)NC1=O)C(=O)N1CCC[C@H]1C(=O)N[C@@H](CC(N)=O)C(=O)N[C@@H](CO)C(=O)N[C@@H](CCCCN)C(=O)N2` [Pi1] (H-LVKCRGTSDCGRPCQQQTGCPNSKCINRMCKCYGC-NH2; disulfide 4-25, 10-30, 14-32, 20-35; N-terminus and C-terminus assumed), in data set [5], the “activity on rat Kv1.3 channels” value was “active on rat Kv1.3 channels contrary to synthetic Pi1”. In data set [6], this compound had an LD50 of 10 µg/kg. Also, the “activity … e.g. apamin-sensitive SK channels” value in data set [1] was “active”.

As to `CC[C@H](C)[C@@H]1NC(=O)[C@@H]2CSSC[C@H](NC(=O)[C@H](CO)NC(=O)[C@@H](N)C(C)C)C(=O)N[C@@H]([C@@H](C)O)C(=O)NCC(=O)N[C@@H](CO)C(=O)N[C@@H](CCCCN)C(=O)N[C@@H](CC(=O)O)C(=O)N[C@@H](CSSC[C@@H](C(=O)N[C@@H](CCCCN)C(=O)N[C@H]3CSSC[C@@H](C(N)=O)NC(=O)CNC(=O)[C@H](Cc4ccc(O)cc4)NC3=O)NC(=O)[C@H](CO)NC(=O)[C@H](CCCCN)NC(=O)[C@H](CC(N)=O)NC1=O)C(=O)N[C@@H](Cc1ccc(O)cc1)C(=O)N[C@@H](C)C(=O)N1CCC[C@H]1C(=O)N[C@H]1CSSC[C@H](NC(=O)CNC(=O)[C@H]([C@@H](C)O)NC(=O)[C@H](CCC(N)=O)NC(=O)[C@H](CCCCN)NC(=O)[C@H](CCCNC(=N)N)NC1=O)C(=O)N1CCC[C@H]1C(=O)N[C@@H](CC(N)=O)C(=O)N[C@@H](C)C(=O)N[C@@H](CCCCN)C(=O)N2` [MTX] (H-VSCTGSKDCYAPCRKQTGCPNAKCINKSCKCYGC-NH2; disulfide 3-24, 9-29, 13-19, 31-34), the “activity on rat Kv1.3 channels” value in data set [5] was “active”. In data set [7], the “activity on voltage-gated K+ channel subtypes including Kv1.2” value is recorded as “active”. The LD50 in data set [6] (other: intracerebroventricular) came to 4 µg/kg. The “activity … e.g. apamin-sensitive SK channels” value in data set [1] is recorded as “active”.
